Key:
[1] = molecular target: T1, Protein cereblon/Stimulator of interferon genes protein (Homo sapiens, UniProt Q96SW2+Q86WV6); assay: Protac activity at CRBN/STING in human THP-1 cells assessed as increase in STING degradation at 10 uM incubated for 48 hrs by Western blot analysis relative to control; type: cell-based
Target sequence in this assay (Q86WV6 whole entry, looked up): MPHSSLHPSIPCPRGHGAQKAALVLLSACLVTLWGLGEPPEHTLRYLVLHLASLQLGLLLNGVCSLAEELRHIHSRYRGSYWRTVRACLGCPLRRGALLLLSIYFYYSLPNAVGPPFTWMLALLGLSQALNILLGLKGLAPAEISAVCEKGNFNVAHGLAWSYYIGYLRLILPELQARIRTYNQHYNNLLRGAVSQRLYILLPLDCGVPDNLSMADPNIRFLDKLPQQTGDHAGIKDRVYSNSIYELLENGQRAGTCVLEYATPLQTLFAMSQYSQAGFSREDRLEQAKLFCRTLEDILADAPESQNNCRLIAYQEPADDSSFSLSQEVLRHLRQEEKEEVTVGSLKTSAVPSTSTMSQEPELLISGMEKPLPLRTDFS
Target sequence in this assay (Q96SW2 whole entry, looked up): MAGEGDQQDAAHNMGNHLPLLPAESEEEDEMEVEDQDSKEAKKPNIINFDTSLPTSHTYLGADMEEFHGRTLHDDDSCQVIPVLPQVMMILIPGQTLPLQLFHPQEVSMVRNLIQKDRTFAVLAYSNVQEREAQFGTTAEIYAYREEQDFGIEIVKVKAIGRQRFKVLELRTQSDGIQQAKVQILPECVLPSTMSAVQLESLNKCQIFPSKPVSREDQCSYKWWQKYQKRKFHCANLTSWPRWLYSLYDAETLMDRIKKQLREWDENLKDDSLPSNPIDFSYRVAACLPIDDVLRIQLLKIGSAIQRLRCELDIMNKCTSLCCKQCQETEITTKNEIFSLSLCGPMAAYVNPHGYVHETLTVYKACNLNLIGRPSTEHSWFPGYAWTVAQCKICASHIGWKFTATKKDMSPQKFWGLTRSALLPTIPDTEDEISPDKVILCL

[2] = molecular target: T1, Protein cereblon/Stimulator of interferon genes protein; assay: Protac activity at CRBN/STING in human THP-1 cells assessed as increase in STING degradation incubated for 48 hrs by Western blot analysis; type: cell-based
Target sequence in this assay (Q96SW2 whole entry): as the sequence (Q96SW2 whole entry, looked up) above
Target sequence in this assay (Q86WV6 whole entry): as the sequence (Q86WV6 whole entry, looked up) above

L02 = assay: Cytotoxicity against human L02 cells assessed as reduction in cell viability at <10 uM by MTT assay; type: toxicity, cell-based; conditions: l02, 10 µM
[3] = Cytotoxicity against HEK293-A cells assessed as reduction in cell viability at <10 uM by MTT assay; type: toxicity, cell-based; conditions: human
[4] = Cytotoxicity against mouse C17.2 cells assessed as reduction in cell viability at <10 uM by MTT assay; type: toxicity, cell-based; conditions: c17.2, 10 µM

With `O=C(/C=C/C(=O)Nc1ccc(NC(=O)c2ccc([N+](=O)[O-])o2)cc1)NCCCCCNc1cccc2c1C(=O)N(C1CCC(=O)NC1=O)C2=O` (stereo not given) the Activity [1] was 62%, the DC50 [2] was 9.2 µM and the Activity (L02) was “Non-Toxic”. The Activity [3] was “Non-Toxic” and the Activity [4] was “Non-Toxic”.

Source: ChEMBL document CHEMBL5154887, “Novel CRBN-Recruiting Proteolysis-Targeting Chimeras as Degraders of Stimulator of Interferon Genes with In Vivo Anti-Inflammatory Efficacy” (J Med Chem, 2022)
